What was measured:
wheat = assay: Test B pre/postemergence wheat; assay type: in vivo, Triticum aestivum
In short: (§1)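 Test chemicals in a non-phytotoxic solvent mixture with surfactant were sprayed preemergence onto planted seeds and postemergence onto plants 2 to 18 cm tall (1- to 4-leaf stage). After twelve to sixteen days in a greenhouse, injury was visually rated against untreated controls from 0 (no effect) to 10 (complete control).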

soybean = assay: Test B pre/postemergence soybean; assay type: in vivo, Glycine max
In short: as §1

corn = assay: Test B pre/postemergence corn; assay type: in vivo, Zea mays
In short: as §1

blackgrass = assay: Test B pre/postemergence blackgrass; assay type: in vivo, Alopecurus myosuroides
In short: as §1

bamyardgrass = assay: Test B flood test barnyardgrass; assay type: in vivo, Echinochloa crus-galli
In short: (§2)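 Plants were grown to the 2-leaf stage before treatment with test chemical, then held in a greenhouse for twelve to sixteen days. Injury was visually rated against untreated controls on a 0–10 scale, where 0 is no effect and 10 is complete control.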

smallflower flatsedge = assay: Test B flood test smallflower flatsedge; assay type: in vivo, Cyperus difformis
In short: as §2

cocklebur = assay: Test B pre/postemergence cocklebur; assay type: in vivo, Xanthium strumarium
In short: as §1

duck salad = assay: Test B flood test duck salad; assay type: in vivo, Heteranthera limosa
In short: as §2

sugar beet = assay: Test B pre/postemergence sugar beet; assay type: in vivo, Beta vulgaris
In short: as §1

crabgrass = assay: Test B pre/postemergence crabgrass; assay type: in vivo, Digitaria sanguinalis
In short: as §1

pigweed = assay: Test B pre/postemergence pigweed; assay type: in vivo, Amaranthus retroflexus
In short: as §1

giant foxtail = assay: Test B pre/postemergence giant foxtail; assay type: in vivo, Setaria faberii
In short: as §1

rape = assay: Test B pre/postemergence rape; assay type: in vivo, Brassica napus
In short: as §1

surinam grass = assay: Test B pre/postemergence surinam grass; assay type: in vivo, Brachiaria decumbens
In short: as §1

rice = assay: Test B flood test rice; assay type: in vivo, Oryza sativa
In short: as §2

purple nutsedge = assay: Test B pre/postemergence purple nutsedge; assay type: in vivo, Cyperus rotundus
In short: as §1

[1] = Preemergence, Rate 62 g/ha, scale of 0 to 10 where 0 is no effect and 10 is complete control
[2] = Preemergence, Rate 250 g/ha, scale of 0 to 10 where 0 is no effect and 10 is complete control
[3] = Preemergence, Rate 500 g/ha, scale of 0 to 10 where 0 is no effect and 10 is complete control
[4] = Rate 62 g/ha, Postemergence, scale of 0 to 10 where 0 is no effect and 10 is complete control
[5] = Rate 125 g/ha, Postemergence, scale 0 to 10
[6] = Rate 125 g/ha, Preemergence, scale of 0 to 10 where 0 is no effect and 10 is complete control
[7] = Rate 500 g/ha, Postemergence, scale 0 to 10
[8] = Rate 62 g/ha, headed Pre-emergence (flood test species), scale 0 to 10 (0 no effect, 10 complete control)
[9] = Rate 125 g/ha, Pre-emergence, flood test species, scale 0 to 10 where 0 is no effect and 10 is complete control
[10] = Rate 250 g/ha, Pre-emergence, flood-test species, scale 0 to 10, 0 is no effect, 10 is complete control
[11] = Rate 500 g/ha, Pre-emergence, flood test species, scale 0 to 10 (0 no effect, 10 complete control)

CCOC(=O)C=CCn1c(=O)on(C(=O)N(c2ccc(F)cc2)C(C)C)c1=O [Compound 214]
Wheat plant response rating (wheat; [1]): 0
Wheat plant response rating (wheat; [2]): 0
Plant response rating, Wheat (wheat; [3]): 0
Wheat plant response rating (wheat; [4]): 0
Wheat plant response rating (wheat; [5]): 0
Wheat plant response rating (wheat; [6]): 0
Plant response rating (0 to 10; 0 is no effect, 10 is complete control), Wheat (wheat; Rate 250 g/ha, Postemergence): 3
Soybean plant response rating (soybean; [1]): 0
Soybean plant response rating (soybean; [2]): 0
Plant response rating, Soybean (soybean; [3]): 4
Soybean plant response rating (soybean; [4]): 0
Soybean plant response rating (soybean; [5]): 1
Soybean plant response rating (soybean; [6]): 0
Plant response rating (0 to 10; 0 is no effect, 10 is complete control), Soybean (soybean; Rate 250 g/ha, Postemergence): 3
Soybean plant response rating (soybean; [7]): 3
Corn plant response rating (corn; [1]): 0
Corn plant response rating (corn; [2]): 0
Plant response rating, Corn (corn; [3]): 0
Corn plant response rating (corn; [4]): 0
Corn plant response rating (corn; [5]): 0
Corn plant response rating (corn; [6]): 0
Plant response rating (0 to 10; 0 is no effect, 10 is complete control), Corn (corn; Rate 250 g/ha, Postemergence): 0
Corn plant response rating (corn; [7]): 0
Blackgrass plant response rating (blackgrass; [1]): 0
Blackgrass plant response rating (blackgrass; [2]): 3
Plant response rating, Blackgrass (blackgrass; [3]): 3
Blackgrass plant response rating (blackgrass; [4]): 1
Blackgrass plant response rating (blackgrass; [5]): 4
Plant response rating (0 to 10; 0 is no effect, 10 is complete control), Blackgrass (blackgrass; Rate 250 g/ha, Postemergence): 4
Blackgrass plant response rating (blackgrass; [7]): 5
Barnyardgrass plant response rating (bamyardgrass; [8]): 0
Barnyardgrass plant response rating (bamyardgrass; [9]): 0
Barnyardgrass plant response rating (bamyardgrass; [10]): 0
Barnyardgrass plant response rating (bamyardgrass; [11]): 0
S. Flatsedge plant response rating (smallflower flatsedge; [8]): 0
S. Flatsedge plant response rating (smallflower flatsedge; [9]): 0
S. Flatsedge plant response rating (smallflower flatsedge; [10]): 0
S. Flatsedge plant response rating (smallflower flatsedge; [11]): 0
Cocklebur plant response rating (cocklebur; [1]): 0
Cocklebur plant response rating (cocklebur; [2]): 0
Plant response rating, Cocklebur (cocklebur; [3]): 0
Cocklebur plant response rating (cocklebur; [4]): 0
Cocklebur plant response rating (cocklebur; [5]): 0
Cocklebur plant response rating (cocklebur; [6]): 0
Plant response rating (0 to 10; 0 is no effect, 10 is complete control), Cocklebur (cocklebur; Rate 250 g/ha, Postemergence): 0
Cocklebur plant response rating (cocklebur; [7]): 0
Ducksalad plant response rating (duck salad; [8]): 0
Ducksalad plant response rating (duck salad; [9]): 0
Ducksalad plant response rating (duck salad; [10]): 0
Ducksalad plant response rating (duck salad; [11]): 0
Sugarbeets plant response rating (sugar beet; [1]): 0
Sugarbeets plant response rating (sugar beet; [2]): 0
Plant response rating, Sugarbeets (sugar beet; [3]): 0
Sugarbeets plant response rating (sugar beet; [4]): 0
Sugarbeets plant response rating (sugar beet; [5]): 0
Sugarbeets plant response rating (sugar beet; [6]): 0
Plant response rating (0 to 10; 0 is no effect, 10 is complete control), Sugarbeets (sugar beet; Rate 250 g/ha, Postemergence): 0
Sugarbeets plant response rating (sugar beet; [7]): 0
Crabgrass plant response rating (crabgrass; [1]): 0
Crabgrass plant response rating (crabgrass; [2]): 1
Plant response rating, Crabgrass (crabgrass; [3]): 4
Crabgrass plant response rating (crabgrass; [4]): 1
Crabgrass plant response rating (crabgrass; [5]): 3
Crabgrass plant response rating (crabgrass; [6]): 0
Plant response rating (0 to 10; 0 is no effect, 10 is complete control), Crabgrass (crabgrass; Rate 250 g/ha, Postemergence): 3
Crabgrass plant response rating (crabgrass; [7]): 5
Redroot pigweed plant response rating (pigweed; [1]): 0
Redroot pigweed plant response rating (pigweed; [2]): 6
Plant response rating, Redroot pigweed (pigweed; [3]): 9
Redroot pigweed plant response rating (pigweed; [4]): 0
Redroot pigweed plant response rating (pigweed; [5]): 0
Redroot pigweed plant response rating (pigweed; [6]): 0
Plant response rating (0 to 10; 0 is no effect, 10 is complete control), Redroot pigweed (pigweed; Rate 250 g/ha, Postemergence): 1
Redroot pigweed plant response rating (pigweed; [7]): 3
Giant foxtail plant response rating (giant foxtail; [1]): 2
Giant foxtail plant response rating (giant foxtail; [2]): 6
Plant response rating, Giant foxtail (giant foxtail; [3]): 6
Giant foxtail plant response rating (giant foxtail; [4]): 0
Giant foxtail plant response rating (giant foxtail; [5]): 0
Giant foxtail plant response rating (giant foxtail; [6]): 3
Plant response rating (0 to 10; 0 is no effect, 10 is complete control), Giant foxtail (giant foxtail; Rate 250 g/ha, Postemergence): 0
Giant foxtail plant response rating (giant foxtail; [7]): 4
Rape plant response rating (rape; [1]): 0
Rape plant response rating (rape; [2]): 0
Plant response rating, Rape (rape; [3]): 0
Rape plant response rating (rape; [4]): 0
Rape plant response rating (rape; [5]): 0
Rape plant response rating (rape; [6]): 0
Plant response rating (0 to 10; 0 is no effect, 10 is complete control), Rape (rape; Rate 250 g/ha, Postemergence): 3
Rape plant response rating (rape; [7]): 3
B. signalgrass plant response rating (surinam grass; [1]): 0
B. signalgrass plant response rating (surinam grass; Preemergence, Rate 250 g/ha, scale 0 to 10, 0 is no effect, 10 is complete control): 0
Plant response rating, B. signalgrass (surinam grass; [3]): 0
B. signalgrass plant response rating (surinam grass; [4]): 0
B. signalgrass plant response rating (surinam grass; Rate 125 g/ha, Postemergence, scale 0 (no effect) to 10 (complete control)): 0
B. signalgrass plant response rating (surinam grass; [6]): 0
Plant response rating (0 to 10; 0 is no effect, 10 is complete control), B. signalgrass (surinam grass; Rate 250 g/ha, Postemergence): 0
B. signalgrass plant response rating (surinam grass; Rate 500 g/ha, Postemergence, scale 0 to 10, 0 no effect, 10 complete control): 0
Rice plant response rating (rice; [8]): 0
Rice plant response rating (rice; [9]): 0
Rice plant response rating (rice; [10]): 0
Rice plant response rating (rice; [11]): 0
Nutsedge plant response rating (purple nutsedge; [1]): 0
Nutsedge plant response rating (purple nutsedge; [4]): 0
Nutsedge plant response rating (purple nutsedge; [5]): 0
Plant response rating (0 to 10; 0 is no effect, 10 is complete control), Nutsedge (purple nutsedge; Rate 250 g/ha, Postemergence): 0
Nutsedge plant response rating (purple nutsedge; [7]): 0

Reference: patent US6737383B1, “Herbicidal oxadiazolidines” (priority 1999, dated 2004)
